Experimental findings from ChEMBL document CHEMBL1137416, “Hydrophobic effect and hydrogen bonds account for the improved activity of a complement inhibitor, compstatin” (J Med Chem, 2006) are described below.

The target of this experiment is Complement C3 (Homo sapiens, UniProt P01024). Put plainly: Inhibition of complement C3.
Chain of Complement C3 (P01024 23-667 limits assumed): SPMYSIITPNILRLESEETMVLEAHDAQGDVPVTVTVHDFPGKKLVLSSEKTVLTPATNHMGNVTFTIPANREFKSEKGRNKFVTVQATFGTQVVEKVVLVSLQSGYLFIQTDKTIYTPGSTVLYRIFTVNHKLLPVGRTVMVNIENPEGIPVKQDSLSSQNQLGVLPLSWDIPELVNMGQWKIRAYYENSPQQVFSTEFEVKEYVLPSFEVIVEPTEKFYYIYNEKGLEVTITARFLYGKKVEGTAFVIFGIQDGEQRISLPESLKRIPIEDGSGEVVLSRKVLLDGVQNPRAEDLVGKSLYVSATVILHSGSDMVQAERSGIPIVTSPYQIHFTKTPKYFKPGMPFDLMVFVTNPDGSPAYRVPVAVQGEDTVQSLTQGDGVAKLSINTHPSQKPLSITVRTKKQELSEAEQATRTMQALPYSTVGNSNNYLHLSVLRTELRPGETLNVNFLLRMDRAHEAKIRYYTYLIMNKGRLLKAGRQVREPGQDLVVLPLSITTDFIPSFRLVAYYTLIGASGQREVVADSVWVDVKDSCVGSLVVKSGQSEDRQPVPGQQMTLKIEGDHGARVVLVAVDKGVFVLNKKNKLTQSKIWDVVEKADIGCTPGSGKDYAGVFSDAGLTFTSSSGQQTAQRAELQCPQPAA
Chain of Complement C3 (P01024 672-1663 limits assumed): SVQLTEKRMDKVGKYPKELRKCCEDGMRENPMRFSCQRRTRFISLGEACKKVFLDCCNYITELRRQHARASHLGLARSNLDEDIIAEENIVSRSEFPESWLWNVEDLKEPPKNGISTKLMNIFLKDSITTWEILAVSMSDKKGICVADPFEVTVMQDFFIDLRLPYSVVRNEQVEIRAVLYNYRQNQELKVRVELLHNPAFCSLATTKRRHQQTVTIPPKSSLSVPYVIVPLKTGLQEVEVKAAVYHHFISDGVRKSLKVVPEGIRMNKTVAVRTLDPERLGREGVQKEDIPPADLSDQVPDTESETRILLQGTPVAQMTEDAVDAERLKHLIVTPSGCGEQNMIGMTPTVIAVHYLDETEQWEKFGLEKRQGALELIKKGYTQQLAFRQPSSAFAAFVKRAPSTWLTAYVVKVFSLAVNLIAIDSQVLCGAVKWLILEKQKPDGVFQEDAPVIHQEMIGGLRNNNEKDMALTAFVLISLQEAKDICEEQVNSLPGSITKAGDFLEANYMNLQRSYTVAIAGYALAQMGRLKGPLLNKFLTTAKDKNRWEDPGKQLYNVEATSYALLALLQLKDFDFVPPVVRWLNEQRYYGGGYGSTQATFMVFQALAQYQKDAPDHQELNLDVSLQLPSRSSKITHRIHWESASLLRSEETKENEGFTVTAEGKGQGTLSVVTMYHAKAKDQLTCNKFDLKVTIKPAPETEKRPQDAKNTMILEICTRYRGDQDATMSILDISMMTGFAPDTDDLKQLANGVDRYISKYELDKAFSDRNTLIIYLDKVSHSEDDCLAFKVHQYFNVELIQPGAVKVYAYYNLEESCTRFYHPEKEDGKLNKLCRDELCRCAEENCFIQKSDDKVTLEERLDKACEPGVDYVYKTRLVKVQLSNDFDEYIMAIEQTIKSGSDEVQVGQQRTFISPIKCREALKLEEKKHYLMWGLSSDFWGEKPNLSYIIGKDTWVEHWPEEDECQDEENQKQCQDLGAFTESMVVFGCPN

By IC50 is commonly meant the concentration that inhibits the measured activity by half. Read a high IC50 as lower potency. In turn, `CC[C@H](C)[C@H](NC(C)=O)C(=O)N[C@H]1CSSC[C@@H](C(=O)N[C@H](C(N)=O)[C@@H](C)O)NC(=O)[C@H](CCCNC(=N)N)NC(=O)[C@H](Cc2c[nH]cn2)NC(=O)[C@H](C)NC(=O)CNC(=O)[C@H](Cc2c[nH]c3ccccc23)NC(=O)[C@H](CC(=O)O)NC(=O)[C@H](CCC(N)=O)NC(=O)[C@H](Cc2ccc3ccccc3c2)NC(=O)[C@H](C(C)C)NC1=O` gave an IC50 of 545 nM. That is a sub-micromolar value.
